In the supplement of paper PMC10307832:

Legend:
Assay in all cases: relative viability (nuclei count vs DMSO), 5 days (fraction); higher = more cells survive
[1] = test system: NCI-H2009
Outline: (§1)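 A single step with final 0.05% Triton X-100, 1% formaldehyde and 1 ug/ml Hoechst fixed the cells and stained nuclei 5 days after treatment. Lung cancer cell lines in 1536-well plates had been treated by pin tool the day after seeding with one drug alone or a fixed anchor-drug dose plus five library-drug doses (not always all listed) in √10 steps, and nuclei were counted on 4× images. Relative viability is the ratio of nuclei in treated wells to nuclei in vehicle wells, taken as the median of duplicate plates.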

[2] = test system: NCI-H661
Outline: as §1

[3] = test system: NCI-H1648
Outline: as §1

[4] = test system: IA-LM
Outline: as §1

[5] = test system: NCI-H2342
Outline: as §1

[6] = test system: HCC-78
Outline: as §1

[7] = test system: NCI-H460
Outline: as §1

[8] = test system: NCI-H522
Outline: as §1

[9] = test system: NCI-H1703
Outline: as §1

**Q.** How did the relative viability ([1]; first compound 0.01 µM) turn out when `O=c1cc(N2CCOCC2)oc2c(-c3cccc4c3sc3ccccc34)cccc12` + O=C(CCCCCCC(=O)Nc1ccccc1)NO [Vorinostat] (partner 1 µM) was run?
**A.** 0.715

**Q.** What about the relative viability ([1]; first compound 0.03162 µM) of the same compound?
**A.** 0.727

**Q.** What about the relative viability ([1]; first compound 0.1 µM) of the same compound?
**A.** 0.696

**Q.** What about the relative viability ([1]; first compound 0.3162 µM) of the same compound?
**A.** 0.761

**Q.** And the relative viability ([1]; first compound 1 µM)?
**A.** 0.7

**Q.** What about the relative viability ([2]; first compound 0.01 µM) of the same compound?
**A.** 0.761

**Q.** What about the relative viability ([2]; first compound 0.03162 µM) of the same compound?
**A.** 0.793

**Q.** And the relative viability ([2]; first compound 0.1 µM)?
**A.** 0.836

**Q.** What about the relative viability ([2]; first compound 0.3162 µM) of the same compound?
**A.** 0.79

**Q.** And the relative viability ([2]; first compound 1 µM)?
**A.** 0.765

**Q.** What about the relative viability ([3]; first compound 0.03162 µM) of the same compound?
**A.** 0.577

**Q.** And the relative viability ([3]; first compound 0.1 µM)?
**A.** 0.438

**Q.** What about the relative viability ([3]; first compound 0.3162 µM) of the same compound?
**A.** 0.419

**Q.** What about the relative viability ([3]; first compound 1 µM) of the same compound?
**A.** 0.689

**Q.** And the relative viability ([4]; first compound 0.01 µM)?
**A.** 0.965

**Q.** What about the relative viability ([4]; first compound 0.03162 µM) of the same compound?
**A.** 0.986

**Q.** What about the relative viability ([4]; first compound 0.1 µM) of the same compound?
**A.** 0.907

**Q.** And the relative viability ([4]; first compound 0.3162 µM)?
**A.** 0.901

**Q.** What about the relative viability ([4]; first compound 1 µM) of the same compound?
**A.** 0.909

**Q.** And the relative viability ([5]; first compound 0.01 µM)?
**A.** 0.708

**Q.** What about the relative viability ([5]; first compound 0.03162 µM) of the same compound?
**A.** 0.828

**Q.** What about the relative viability ([5]; first compound 0.1 µM) of the same compound?
**A.** 0.748

**Q.** What about the relative viability ([5]; first compound 0.3162 µM) of the same compound?
**A.** 0.729

**Q.** And the relative viability ([5]; first compound 1 µM)?
**A.** 0.637

**Q.** What about the relative viability ([6]; first compound 0.01 µM) of the same compound?
**A.** 0.428

**Q.** What about the relative viability ([6]; first compound 0.03162 µM) of the same compound?
**A.** 0.406

**Q.** What about the relative viability ([6]; first compound 0.1 µM) of the same compound?
**A.** 0.44

**Q.** And the relative viability ([6]; first compound 0.3162 µM)?
**A.** 0.464

**Q.** And the relative viability ([6]; first compound 1 µM)?
**A.** 0.48

**Q.** What about the relative viability ([7]; first compound 0.01 µM) of the same compound?
**A.** 0.68

**Q.** And the relative viability ([7]; first compound 0.03162 µM)?
**A.** 0.773

**Q.** What about the relative viability ([7]; first compound 0.1 µM) of the same compound?
**A.** 0.957

**Q.** And the relative viability ([7]; first compound 0.3162 µM)?
**A.** 0.655

**Q.** What about the relative viability ([7]; first compound 1 µM) of the same compound?
**A.** 0.75

**Q.** And the relative viability ([8]; first compound 0.01 µM)?
**A.** 0.986

**Q.** And the relative viability ([8]; first compound 0.03162 µM)?
**A.** 0.932

**Q.** What about the relative viability ([8]; first compound 0.1 µM) of the same compound?
**A.** 0.864

**Q.** What about the relative viability ([8]; first compound 0.3162 µM) of the same compound?
**A.** 0.873

**Q.** What about the relative viability ([8]; first compound 1 µM) of the same compound?
**A.** 0.666

**Q.** `CCN(CC)CCCCNc1ncc2cc(-c3cc(OC)cc(OC)c3)c(NC(=O)NC(C)(C)C)nc2n1` + O=C(CCCCCCC(=O)Nc1ccccc1)NO [Vorinostat] (partner 1 µM) was tested. Which relative viability ([1]; first compound 0.01 µM) did it give?
**A.** 0.731

**Q.** And the relative viability ([1]; first compound 0.03162 µM)?
**A.** 0.749

**Q.** What about the relative viability ([1]; first compound 0.1 µM) of the same compound?
**A.** 0.78

**Q.** And the relative viability ([1]; first compound 0.3162 µM)?
**A.** 0.78

**Q.** What about the relative viability ([1]; first compound 1 µM) of the same compound?
**A.** 0.624

**Q.** What about the relative viability ([2]; first compound 0.01 µM) of the same compound?
**A.** 0.781

**Q.** What about the relative viability ([2]; first compound 0.03162 µM) of the same compound?
**A.** 0.757

**Q.** What about the relative viability ([2]; first compound 0.1 µM) of the same compound?
**A.** 0.856

**Q.** And the relative viability ([2]; first compound 0.3162 µM)?
**A.** 0.839

**Q.** What about the relative viability ([2]; first compound 1 µM) of the same compound?
**A.** 0.741

**Q.** And the relative viability ([3]; first compound 0.01 µM)?
**A.** 0.48

**Q.** What about the relative viability ([3]; first compound 0.03162 µM) of the same compound?
**A.** 0.352

**Q.** What about the relative viability ([3]; first compound 0.1 µM) of the same compound?
**A.** 0.666

**Q.** And the relative viability ([3]; first compound 0.3162 µM)?
**A.** 0.602

**Q.** What about the relative viability ([3]; first compound 1 µM) of the same compound?
**A.** 0.327

**Q.** What about the relative viability ([4]; first compound 0.01 µM) of the same compound?
**A.** 0.963

**Q.** What about the relative viability ([4]; first compound 0.03162 µM) of the same compound?
**A.** 0.836

**Q.** What about the relative viability ([4]; first compound 0.1 µM) of the same compound?
**A.** 0.852

**Q.** And the relative viability ([4]; first compound 0.3162 µM)?
**A.** 1.26

**Q.** What about the relative viability ([4]; first compound 1 µM) of the same compound?
**A.** 0.979

**Q.** What about the relative viability ([5]; first compound 0.01 µM) of the same compound?
**A.** 0.699

**Q.** What about the relative viability ([5]; first compound 0.03162 µM) of the same compound?
**A.** 0.716

**Q.** What about the relative viability ([5]; first compound 0.1 µM) of the same compound?
**A.** 0.796

**Q.** What about the relative viability ([5]; first compound 0.3162 µM) of the same compound?
**A.** 0.708

**Q.** And the relative viability ([5]; first compound 1 µM)?
**A.** 0.875

**Q.** What about the relative viability ([6]; first compound 0.01 µM) of the same compound?
**A.** 0.479

**Q.** And the relative viability ([6]; first compound 0.03162 µM)?
**A.** 0.487

**Q.** What about the relative viability ([6]; first compound 0.1 µM) of the same compound?
**A.** 0.478

**Q.** And the relative viability ([6]; first compound 0.3162 µM)?
**A.** 0.456

**Q.** And the relative viability ([6]; first compound 1 µM)?
**A.** 0.497

**Q.** What about the relative viability ([7]; first compound 0.01 µM) of the same compound?
**A.** 0.817

**Q.** And the relative viability ([7]; first compound 0.03162 µM)?
**A.** 0.793

**Q.** And the relative viability ([7]; first compound 0.1 µM)?
**A.** 1.39

**Q.** What about the relative viability ([7]; first compound 0.3162 µM) of the same compound?
**A.** 0.763

**Q.** And the relative viability ([7]; first compound 1 µM)?
**A.** 0.557

**Q.** And the relative viability ([8]; first compound 0.01 µM)?
**A.** 0.891

**Q.** What about the relative viability ([8]; first compound 0.03162 µM) of the same compound?
**A.** 0.835

**Q.** What about the relative viability ([8]; first compound 0.1 µM) of the same compound?
**A.** 1.19

**Q.** What about the relative viability ([8]; first compound 0.3162 µM) of the same compound?
**A.** 0.948

**Q.** What about the relative viability ([8]; first compound 1 µM) of the same compound?
**A.** 0.962

**Q.** For `COc1nc(C)cnc1NS(=O)(=O)c1cccnc1-c1ccc(-c2nnco2)cc1` [Zibotentan] + NC(=O)Nc1cc(-c2cccc(F)c2)sc1C(=O)N[C@H]1CCCNC1 [AZD7762] (partner 0.2 µM), which relative viability ([3]; first compound 0.08 µM) is on record?
**A.** 0.637

**Q.** And the relative viability ([3]; first compound 0.253 µM)?
**A.** 0.596

**Q.** What about the relative viability ([3]; first compound 0.8 µM) of the same compound?
**A.** 0.596

**Q.** What about the relative viability ([3]; first compound 2.53 µM) of the same compound?
**A.** 0.63

**Q.** What about the relative viability ([5]; first compound 0.08 µM) of the same compound?
**A.** 0.556

**Q.** What about the relative viability ([5]; first compound 0.253 µM) of the same compound?
**A.** 0.507

**Q.** And the relative viability ([5]; first compound 0.8 µM)?
**A.** 0.439

**Q.** And the relative viability ([5]; first compound 2.53 µM)?
**A.** 0.517

**Q.** What about the relative viability ([6]; first compound 0.08 µM) of the same compound?
**A.** 0.712

**Q.** And the relative viability ([6]; first compound 0.253 µM)?
**A.** 0.475

**Q.** And the relative viability ([6]; first compound 0.8 µM)?
**A.** 0.664

**Q.** What about the relative viability ([6]; first compound 2.53 µM) of the same compound?
**A.** 0.474

**Q.** What about the relative viability ([7]; first compound 0.08 µM) of the same compound?
**A.** 0.784

**Q.** What about the relative viability ([7]; first compound 0.253 µM) of the same compound?
**A.** 0.539

**Q.** What about the relative viability ([7]; first compound 0.8 µM) of the same compound?
**A.** 0.251

**Q.** What about the relative viability ([7]; first compound 2.53 µM) of the same compound?
**A.** 0.749

**Q.** And the relative viability ([9]; first compound 0.08 µM)?
**A.** 0.139

**Q.** And the relative viability ([9]; first compound 0.253 µM)?
**A.** 0.114

**Q.** What about the relative viability ([9]; first compound 0.8 µM) of the same compound?
**A.** 0.108

**Q.** And the relative viability ([9]; first compound 2.53 µM)?
**A.** 0.121

**Q.** And the relative viability ([8]; first compound 0.08 µM)?
**A.** 0.835

**Q.** What about the relative viability ([8]; first compound 0.253 µM) of the same compound?
**A.** 0.862

**Q.** What about the relative viability ([8]; first compound 0.8 µM) of the same compound?
**A.** 0.773

**Q.** What about the relative viability ([8]; first compound 2.53 µM) of the same compound?
**A.** 0.856
